For ten compounds, IC50 results are on record in US9708326B2, “Inhibitors of bruton's tyrosine kinase” (Pharmacyclics LLC, priority 2013, dated 2017).

Holding throughout (type): biochemical
Conditions in all cases: one of the methods outlined in Example 11a, 11b and 11c

Assay [1] deals with EGFR (Homo sapiens, UniProt P00533). Kind of assay: Inhibition of a panel of kinases: EGFR in vitro kinase assay.
In assay [2] the target is T1, BTK (Homo sapiens, UniProt Q06187).
T1 construct: N-terminal His6-tagged, recombinant, full-length, human BTK; His6 (N); made in house; host or cells: baculovirus / Sf21 insect cells
Put plainly: Inhibition of a panel of kinases: BTK in vitro kinase assay. The method, then: (§1) Btk kinase activity is determined using a time-resolved fluorescence resonance energy transfer (TR-FRET) methodology. Measurements are performed in a reaction volume of 50 μL using 96-well assay plates. Kinase enzyme, inhibitor, ATP (at the Km for the kinase), and 1 μM peptide substrate (Biotin-AVLESEEELYSSARQ-NH2) are incubated in a reaction buffer composed of 20 mM Tris, 50 mM NaCl, MgCl2 (5-25 mM depending on the kinase), MnCl2 (0-10 mM), 1 mM DTT, 0.1 mM EDTA, 0.01% bovine serum albumin, 0.005% Tween-20, and 10% DMSO at pH 7.4 for one hour. The reaction is quenched by the addition of 1.2 equivalents of EDTA (relative to divalent cation) in 25 μL of 1× Lance buffer (Perkin-Elmer). Streptavidin-APC (Perkin-Elmer) and Eu-labeled p-Tyr100 antibody (Perkin-Elmer) in 1× Lance buffer are added in a 25 μL volume to give final concentrations of 100 nM and 2.5 nM, respectively, and the mixture is allowed to incubate for one hour. The TR-FRET signal is measured on a multimode plate reader with an excitation wavelength (λEx) of 330 nm and detection wavelengths (λEm) of 615 and 665 nm. Activity is determined by the ratio of the fluorescence at 665 nm to that at 615 nm. For each compound, enzyme activity is measured at various concentrations of compound. Negative control reactions are performed in the absence of inhibitor in replicates of six, and two no-enzyme controls are used to determine baseline fluorescence levels Inhibition constants, Ki(app), ware obtained using the program BatchKi (Kuzmic et al. (2000), Anal. Biochem. 286:45-50). IC50s are obtained according to the equation: IC50={Ki(app)/(1+[ATP]/Km^ATP)}+[E]total/2;
(§2) For all kinases, [ATP]=Km^ATP, [Btk]total=0.5 nM and [Lck]total=6 nM.
(§3) Kinase activity is measured in vitro using electrophoretic mobility shift assay. The kinase reactions are assembled in a total volume of 25 μL in 384 well plates. The reactions comprise: BTK enzyme (1 nM, N-terminal His6-tagged, recombinant, full-length, human BTK purified from baculovirus Sf21 insect cell system), inhibitor, ATP (16 μM, the apparent Km for the kinase), fluorescently labeled peptide substrate (1 μM, FAM-GEEPLYWSFPAKKK-NH2) in a reaction buffer composed of 100 mM HEPES, pH7.5, 5 mM MgCl2 1 mM DTT, 0.1% bovine serum albumin, 0.01% Triton X-100, and 1% DMSO. The reaction is incubated for one hour and is quenched by the addition of 45 μL of termination buffer (100 mM HEPES, pH7.5, 0.01% Triton X-100, 30 mM EDTA). The terminated reactions are analyzed using 12 channel LabChip® 3000 microfluidic detection instrument (Caliper Life Sciences). The enzymatic phosphorylation of the peptide results in a change in net charge, enabling electrophoretic separation of product from substrate peptide. As substrate and product peptides are separated, two peaks of fluorescence are observed. Change in the relative fluorescence intensity of the substrate and product peaks is the parameter measured, reflecting enzyme activity. In the presence of an inhibitor, the ratio between product and substrate is altered: the signal of the product decreases, while the signal of the substrate increases.
(§4) Activity in each sample is determined as the product to sum ratio (PSR): P/(S+P), where P is the peak height of the product peptide and S is the peak height of the substrate peptide. For each compound, enzyme activity is measured at various concentrations (12 concentrations of compound spaced by 3× dilution intervals). Negative control samples (0%-inhibition in the absence of inhibitor) and positive control samples (100%-inhibition, in the presence of 20 mM EDTA) are assembled in replicates of four and are used to calculate %-inhibition values for each inhibitor at each concentration. Percent inhibition (Pinh) is determined using following equation: […]

In assay [3] the target is LCK (Homo sapiens, UniProt P06239). Put plainly: Inhibition of a panel of kinases: LCK in vitro kinase assay. How it is done:
as §1, §2, §3, §4

Sequence of LCK (P06239 whole entry, species assumed): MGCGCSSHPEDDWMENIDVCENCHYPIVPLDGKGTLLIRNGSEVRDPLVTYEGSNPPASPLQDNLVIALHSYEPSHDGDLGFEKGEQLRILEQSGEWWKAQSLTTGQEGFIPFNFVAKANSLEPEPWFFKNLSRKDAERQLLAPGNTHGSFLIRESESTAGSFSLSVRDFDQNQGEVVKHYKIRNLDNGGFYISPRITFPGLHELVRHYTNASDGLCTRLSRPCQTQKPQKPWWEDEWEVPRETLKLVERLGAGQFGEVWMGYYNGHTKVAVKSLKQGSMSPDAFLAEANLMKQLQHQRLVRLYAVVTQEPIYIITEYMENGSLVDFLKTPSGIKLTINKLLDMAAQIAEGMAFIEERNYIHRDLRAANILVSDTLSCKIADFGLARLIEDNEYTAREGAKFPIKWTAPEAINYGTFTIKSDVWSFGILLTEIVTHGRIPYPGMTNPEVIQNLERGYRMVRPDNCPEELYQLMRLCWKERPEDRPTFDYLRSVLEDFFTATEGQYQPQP
Sequence of EGFR (P00533 25-1210, species assumed): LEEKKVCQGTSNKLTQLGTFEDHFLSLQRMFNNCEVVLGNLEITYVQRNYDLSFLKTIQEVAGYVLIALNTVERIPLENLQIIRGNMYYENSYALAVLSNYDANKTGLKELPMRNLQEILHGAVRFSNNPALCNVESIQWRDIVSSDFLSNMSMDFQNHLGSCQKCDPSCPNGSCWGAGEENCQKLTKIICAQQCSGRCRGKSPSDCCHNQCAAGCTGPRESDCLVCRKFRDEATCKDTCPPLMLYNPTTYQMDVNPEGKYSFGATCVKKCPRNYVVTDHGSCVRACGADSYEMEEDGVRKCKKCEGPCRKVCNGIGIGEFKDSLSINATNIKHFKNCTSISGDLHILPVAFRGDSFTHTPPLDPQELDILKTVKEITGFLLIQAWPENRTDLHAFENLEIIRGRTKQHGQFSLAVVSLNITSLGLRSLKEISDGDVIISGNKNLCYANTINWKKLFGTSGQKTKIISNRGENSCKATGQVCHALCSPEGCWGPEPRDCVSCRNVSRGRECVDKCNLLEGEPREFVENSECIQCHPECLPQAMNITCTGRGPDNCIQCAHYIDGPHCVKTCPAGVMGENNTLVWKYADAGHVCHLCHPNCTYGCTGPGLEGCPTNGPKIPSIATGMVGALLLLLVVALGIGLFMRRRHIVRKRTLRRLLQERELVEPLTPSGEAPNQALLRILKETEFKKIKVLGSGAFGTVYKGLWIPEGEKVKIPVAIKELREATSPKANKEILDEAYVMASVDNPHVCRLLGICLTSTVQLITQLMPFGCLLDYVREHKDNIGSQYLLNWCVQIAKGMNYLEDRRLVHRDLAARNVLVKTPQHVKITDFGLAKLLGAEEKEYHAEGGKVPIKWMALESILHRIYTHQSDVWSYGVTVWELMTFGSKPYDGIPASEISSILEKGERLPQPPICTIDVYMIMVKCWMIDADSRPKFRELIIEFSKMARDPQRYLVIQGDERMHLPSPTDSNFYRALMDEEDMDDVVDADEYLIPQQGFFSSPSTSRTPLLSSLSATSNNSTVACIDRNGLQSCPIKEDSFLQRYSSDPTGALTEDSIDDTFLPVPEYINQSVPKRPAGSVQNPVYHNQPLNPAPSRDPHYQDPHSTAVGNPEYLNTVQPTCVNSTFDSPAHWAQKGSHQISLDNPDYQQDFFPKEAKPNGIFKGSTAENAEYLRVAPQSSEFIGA
T1 sequence (Q06187 whole entry): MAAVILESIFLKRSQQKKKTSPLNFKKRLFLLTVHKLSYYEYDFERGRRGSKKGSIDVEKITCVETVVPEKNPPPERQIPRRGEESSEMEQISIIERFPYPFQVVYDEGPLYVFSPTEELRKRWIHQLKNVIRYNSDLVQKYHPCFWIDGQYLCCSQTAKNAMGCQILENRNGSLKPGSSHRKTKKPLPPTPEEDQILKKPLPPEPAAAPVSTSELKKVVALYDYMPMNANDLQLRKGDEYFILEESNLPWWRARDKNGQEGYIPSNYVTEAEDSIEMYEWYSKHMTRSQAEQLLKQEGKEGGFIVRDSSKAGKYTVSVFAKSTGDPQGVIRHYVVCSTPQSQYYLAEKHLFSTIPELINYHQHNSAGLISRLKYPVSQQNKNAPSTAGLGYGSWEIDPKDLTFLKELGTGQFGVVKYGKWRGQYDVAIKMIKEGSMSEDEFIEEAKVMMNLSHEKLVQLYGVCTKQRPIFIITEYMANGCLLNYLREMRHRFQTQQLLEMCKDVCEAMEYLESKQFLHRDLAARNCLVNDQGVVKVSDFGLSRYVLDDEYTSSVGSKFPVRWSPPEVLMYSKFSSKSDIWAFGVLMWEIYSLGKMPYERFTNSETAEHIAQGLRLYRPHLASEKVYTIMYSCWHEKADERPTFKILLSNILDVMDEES

The IC50 is the concentration needed to halve the response being measured. Low readings indicate higher potency, high ones lower potency. Take `COCCOc1ccc(Nc2ncc3[nH]c(=O)n(-c4cccc(NC(=O)/C=C/CN(C)C)c4)c3n2)cc1` [Compound 6, (E)-4-(dimethylamino)-N-(3-(2-(4-(2-methoxyethoxyl)phenylamino)-8-oxo-7H-purin-9(8H)-yl)phenyl)but-2-enamide]: the IC50 in assay [1] is 1 to 10 µM; in assay [2], under 0.1 µM.
On to `C=CC(=O)N(C)c1cccc(-n2c(=O)[nH]c3cnc(Nc4ccc(OCCOC)cc4)nc32)c1` [Compound 13, N-(3-(2-(4-(2-methoxyethoxyl)phenylamino)-8-oxo-7H-purin-9(8H)-yl)phenyl)-N-methylacrylamide], for which the concentration for half-maximal inhibition (IC50) in assay [3] is 1 to 10 µM; in assay [1], 1 to 10 µM; in assay [2] it was under 0.1 µM.
Consider `C=CC(=O)Nc1cccc(-n2c(=O)[nH]c3cnc(Nc4ccc(F)cc4)nc32)c1` [Compound 17, N-(3-(2-(4-fluorophenylamino)-8-oxo-7H-purin-9(8H)-yl)phenyl)acrylamide], for which the IC50 in assay [3] is over 10 µM; in assay [1], 0.1 to 1 µM; in assay [2], under 0.1 µM.
Regarding `CN(C)C/C=C/C(=O)N1CC(n2c(=O)[nH]c3cnc(Nc4ccc(F)cc4)nc32)C1` [Compound 23, (E)-9-(1-(4-(dimethylamino)but-2-enoyl)azetidin-3-yl)-2-(4-fluorophenylamino)-7H-purin-8(9H)-one], the IC50 in assay [1] was over 10 µM; in assay [2], 0.1 to 1 µM.
In the case of `CN(C)C/C=C/C(=O)N1CCC[C@@H](n2c(=O)[nH]c3cnc(Nc4ccc(F)cc4)nc32)C1` [Compound 29, (R,E)-9-(1-(4-(dimethylamino)but-2-enoyl)piperidin-3-yl)-2-(4-fluorophenylamino)-7H-purin-8(9H)-one], the values for the IC50 in assay [3], in assay [1] and in assay [2] were 1 to 10 µM, 1 to 10 µM and 0.1 to 1 µM, respectively.
Take `CN(C)C/C=C/C(=O)N1CCC(n2c(=O)[nH]c3cnc(Nc4ccc(F)cc4)nc32)CC1` [Compound 35, (E)-9-(1-(4-(dimethylamino)but-2-enoyl)piperidin-4-yl)-2-(4-fluorophenylamino)-7H-purin-8(9H)-one]: the IC50 was 1 to 10 µM in assay [3], over 10 µM in assay [1] and 0.1 to 1 µM in assay [2].
In the case of `C=CC(=O)Nc1cccc(-n2c(=O)[nH]c3cnc(Nc4ccc(OCCOC)cc4)nc32)c1` [Compound 43, N-(3-(2-(4-(2-methoxyethoxyl)phenylamino)-8-oxo-7H-purin-9(8H)-yl)phenyl)acrylamide], the IC50 in assay [3] is over 10 µM; in assay [1] it was 1 to 10 µM; in assay [2], under 0.1 µM.
The corresponding values for `CN(C)C/C=C/C(=O)Nc1cccc(-n2c(=O)[nH]c3cnc(Nc4ccc(F)cc4)nc32)c1` [Compound 48, (E)-4-(dimethylamino)-N-(3-(2-(4-fluorophenylamino)-8-oxo-7H-purin-9(8H)-yl)phenyl)but-2-enamide] are 1 to 10 µM, 1 to 10 µM and under 0.1 µM.
Take `C=CC(=O)Nc1cccc(-c2n[nH]c3cnc(Nc4ccc(OCCOC)cc4)nc23)c1` [Compound 54, N-(3-(5-(4-(2-methoxyethoxyl)phenylamino)-1H-pyrazolo[4,3-d]pyrimidin-3-yl)phenyl)acrylamide]: the half-maximal inhibitory concentration (IC50) in assay [3] was 0.1 to 1 µM; in assay [1] it was 1 to 10 µM; in assay [2] it was under 0.1 µM.
The corresponding values for `C=CC(=O)Nc1cccc(-c2c[nH]c3cnc(Nc4ccc(OCCOC)cc4)nc23)c1` [Compound 60, N-(3-(2-(4-(2-methoxyethoxyl)phenylamino)-5H-pyrrolo[3,2-d]pyrimidin-7-yl)phenyl)acrylamide] are 1 to 10 µM, 1 to 10 µM and 0.1 to 1 µM.
